Common to all, as to assay: growth of human tumour cells (NCI), 48 h
Experiment [1] has as its system UACC-257 melanoma.
The subject of experiment [2] is M14 melanoma.
The subject of experiment [3] is NCI-H522 lung.
The test system of experiment [4] is MOLT-4 leukemia.
Experiment [5] concerns IGROV1 ovarian.
The test system of experiment [6] is SK-OV-3 ovarian.
Experiment [7] deals with SNB-19 CNS.
Experiment [8] has as its system DU-145 prostate.
The subject of experiment [9] is ACHN renal.
The subject of experiment [10] is NCI-H23 lung.

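Assay format: 96-well plates, 48-hour exposure. GI50: concentration for 50% inhibition of growth. The concentration for full growth arrest is given as TGI.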 Some results are limits rather than exact numbers.

Regarding `O=C(Nc1cc(C(F)(F)F)ccc1Cl)c1cccc(NC2=C(Cl)C(=O)N(Cc3ccccc3)C2=O)c1`, the GI50 in experiment [1] is 53.7 µM; in experiment [2] it was 82.6 µM; in experiment [3], 6.8 µM; in experiment [4] it was 2.19 µM; in experiment [5] it was 2.81 µM; in [6], more than 100 µM. Moreover, the GI50 in [7] is more than 100 µM; in experiment [8], 54.4 µM; in experiment [9], 99.9 µM. Also, the TGI in [1] is more than 100 µM; in experiment [2] it was more than 100 µM; in experiment [3], 45.3 µM; in experiment [4], more than 100 µM; in experiment [5] it was more than 100 µM; in experiment [6], more than 100 µM. The TGI in [7], in experiment [8] and in experiment [9] was more than 100 µM throughout.
For the molecule `O=C1CCC/C=C\C[C@H]2C=CC(=O)/C2=C/C[C@H](C/C=C\CC(F)(F)F)O1`, the GI50 in experiment [10] is 0.698 µM; in experiment [2], 0.493 µM; in experiment [3], 0.257 µM; in [4] it was 0.984 µM; in [5] it was 0.596 µM; in experiment [6], 0.757 µM. The GI50 in experiment [7] is 0.867 µM; in experiment [8], 0.607 µM; in [9], 0.333 µM. For the same molecule, the TGI was 3.67 µM in [10]; 1.7 µM in experiment [2]; 0.537 µM in experiment [3]; 7.51 µM in experiment [4]; 1.98 µM in [5]; 3.02 µM in experiment [6]. Besides, the TGI in experiment [7] turned out to be 3.71 µM; in experiment [8], 2.33 µM; in experiment [9], 0.629 µM.
For `O=[N+]([O-])c1cccc2ccc(N/N=C/c3ccccc3O)nc12`, the GI50 is more than 100 µM in [10]; more than 100 µM in experiment [1]; more than 100 µM in experiment [2]; 0.313 µM in experiment [4]; more than 100 µM in experiment [6]; more than 100 µM in experiment [7]. Besides, the values for the GI50 in experiment [8] and in [9] were more than 23.8 µM and more than 100 µM, respectively. Also, the TGI in experiment [10] was more than 100 µM; in experiment [1], more than 100 µM; in [2], more than 100 µM; in experiment [3], more than 39.6 µM; in experiment [4] it was 1.16 µM; in [6] it was more than 100 µM. In addition, the TGI in experiment [7], in experiment [8] and in [9] was more than 100 µM in each case.
Take `CCCCCCCN=C(N)c1ccc(N2CCN(c3ccc(C(N)=NCCCCCCC)cc3)CC2)cc1`: the GI50 in experiment [1] was 1.24 µM; in [2], 7.29 µM; in [4], 2.71 µM; in experiment [6], 0.735 µM; in experiment [7] it was 0.643 µM; in [8] it was 0.296 µM. Also, the GI50 in [9] was 0.499 µM. For the same molecule, the TGI in [1] was 4.39 µM; in experiment [2], more than 100 µM; in experiment [3] it was 0.0351 µM; in experiment [4] it was more than 100 µM; in experiment [6] it was more than 26.4 µM; in experiment [7], 17.4 µM. The TGI in experiment [8] came to 21.8 µM; in [9], 24.8 µM.
On to `CN1CC[C@@H](c2c(O)cc(O)c3c(=O)cc(-c4ccc(C(F)(F)F)cc4Cl)oc23)[C@@H]1CO`, for which the GI50 was 15.2 µM in experiment [10]; 26.6 µM in [1]; 17.8 µM in experiment [2]; 17.4 µM in [3]; 11.8 µM in [5]; 26.6 µM in experiment [6]. Moreover, the GI50 in [7] was 21 µM; in experiment [8] it was 16.5 µM; in [9] it was 10.6 µM. Moreover, the TGI in [10] worked out at 37.3 µM; in experiment [1] it was 46.7 µM; in [2], 33.8 µM; in experiment [3] it was 37.3 µM; in [5], 38.6 µM; in experiment [6], 70 µM. The TGI is 62.7 µM in experiment [7], 37.7 µM in experiment [8] and 38 µM in experiment [9].
Turning to `CN(C)CCSc1cc(-c2ccccc2)c2ccccc2n1`, the TGI was 23.1 µM in experiment [10]; 24.8 µM in [1]; 7.01 µM in [2]; 24.1 µM in [3]; 25.5 µM in [5]; 15.9 µM in experiment [6]. For the same molecule, the figures for the TGI in experiment [7], in experiment [8] and in [9] were 28.5 µM, 28.7 µM and 26.7 µM, respectively.
With `O=C(Nc1ccc(Cl)c(C(F)(F)F)c1)c1ccc(NC2=C(Cl)C(=O)N(Cc3ccccc3)C2=O)cc1`, the GI50 in experiment [1] was 16.3 µM; in experiment [2], 19.6 µM; in experiment [3] it was 2.18 µM; in experiment [4], 2.89 µM; in experiment [5], 1.59 µM; in experiment [6] it was 26.9 µM. Also, the results for the GI50 in experiment [7], in experiment [8] and in experiment [9] were 29.2 µM, 2.45 µM and 4.18 µM, respectively. The TGI was 42.7 µM in [1]; 41.6 µM in experiment [2]; 5.54 µM in [3]; more than 100 µM in experiment [4]; 3.92 µM in experiment [5]; 60.5 µM in experiment [6]. Further, the TGI in experiment [7] is more than 100 µM; in [8], 6.71 µM; in experiment [9], 15.2 µM.
Take `CSc1ccccc1C#C/C=C\C#Cc1ccccc1N`: the GI50 in experiment [10] is 13.1 µM; in experiment [1] it was 43.5 µM; in experiment [2] it was 5.85 µM; in [3] it was 0.527 µM; in experiment [4], 8.04 µM; in experiment [6], 31.4 µM. The values for the GI50 in experiment [7], in experiment [8] and in experiment [9] were 22.2 µM, 15.4 µM and 20.1 µM, respectively. Moreover, the TGI is 37.3 µM in [10]; more than 100 µM in [1]; 20.1 µM in [2]; 32.4 µM in [3]; more than 100 µM in experiment [4]; 96.5 µM in [6]. For the same molecule, the TGI in [7] was more than 100 µM; in experiment [8] it was 45.6 µM; in experiment [9], more than 100 µM.
On to `CN(C)c1ncnc2c1ncn2CCn1cnc2c(N(C)C)ncnc21`, for which the TGI in experiment [10], in experiment [1], in experiment [2], in experiment [3], in [5] and in experiment [6] was more than 100 µM in each case. The TGI in [7], in experiment [8] and in experiment [9] was more than 100 µM each time.

For the origin of these results see PubChem BioAssay (NCI).
